The values that follow come from ChEMBL document CHEMBL2424636, “Synthesis and anticancer activity evaluation of new 1,2,3-triazole-4-carboxamide derivatives” (2013).

What all share (assay type): functional
The test system of one test is NCI-H522. The experiment in a line: Cytotoxicity against human NCI-H522 cells assessed as cell growth at 10^-5 M after 48 hrs by SRB assay. Particulars: NCI-H522, 48 h, read-out: Activity. (In general: The SRB assay estimates cell density from bound dye.)
The test system of another test is MDA-MB-468. The test can be described thus: Cytotoxicity against human MDA-MB-468 cells assessed as cell growth at 10^-5 M after 48 hrs by SRB assay. Particulars: MDA-MB-468, 48 h, read-out: Activity.
The test system of a further test is IGROV-1. The experiment in a line: Cytotoxicity against human IGROV1 cells assessed as cell growth at 10^-5 M after 48 hrs by SRB assay. To be noted: IGROV-1, 48 h, read-out: Activity.
Another test has as its system HOP-92. The test can be described thus: Cytotoxicity against human HOP92 cells assessed as cell growth at 10^-5 M after 48 hrs by SRB assay. Particulars: HOP-92, 48 h, read-out: Activity.
For another test, the system named is SNB-75. The test can be described thus: Cytotoxicity against human SNB75 cells assessed as cell growth at 10^-5 M after 48 hrs by SRB assay. Particulars: SNB-75, 48 h, read-out: Activity.
The next test has as its system SF-539. The experiment in a line: Cytotoxicity against human SF539 cells assessed as cell growth at 10^-5 M after 48 hrs by SRB assay. Particulars: SF-539, 48 h, read-out: Activity.
The next test concerns A549. The experiment in a line: Cytotoxicity against human A549/ATCC cells assessed as cell growth at 10^-5 M after 48 hrs by SRB assay. To be noted: A549, 48 h, read-out: Activity.
Another test concerns CAKI-1. The experiment in a line: Cytotoxicity against human Caki1 cells assessed as cell growth at 10^-5 M after 48 hrs by SRB assay. To be noted: CAKI-1, 48 h, read-out: Activity.

In the case of `COc1cccc(NC(=O)c2nnn(-c3ccc4noc(-c5ccc(Cl)cc5)c4c3)c2C)c1`, the growth at 10 µM amounted to 62% in the test with NCI-H522; 56.6% in the test on MDA-MB-468; 49.9% with IGROV-1; 61.5% in the test with HOP-92; 46.6% with SNB-75; 54.1% with SF-539.

For `Cc1c(C(=O)Nc2ncc(Cc3ccccc3)s2)nnn1-c1ccccc1`, the growth at 10 µM in the test on A549 was determined as 80.3%; in the test with CAKI-1, 80%.
